How the values were obtained:
[1] = HPLC studies of reaction kinetics of tetrazine prodrugs with cyclooctyne alkynes (Kobs, second-order rate constant k2); assay type: physicochemical; conditions: for Kobs: prodrug 25 μM; for k2 at 37° C. (second order rate constant) / k2 at r.t (second order rate constant): PBS containing 10% DMSO, n = 3
Protocol: Stock solution preparation. Each of the tetrazine prodrugs (compounds 1b, 1c, and 1d) was dissolved in DMSO to afford a 500-μM stock solution. Each of the alkynes (compounds 2a, 2b, 2c, and 2d) was dissolved in DMSO to afford a 50-mM stock solution. Doxorubicin (Dox) and dansylamino compound (DA) 1.1b were each dissolved in DMSO to afford 1-mM stock solutions.
HPLC method A.: mobile phase A (10 mM NaH2PO4 in water, pH=5.0) and mobile phase B (ACN), flow rate: 1 mL/min, running time: 30 min, the gradient elution method: 25% B from 0 to 6 min, 25% to 50% B from 6 to 8 min, 50% B from 8 to 15 min, 50% to 99% B from 15 to 20 min, 99% B from 20 to 25 min, 99% to 25% B from 25 to 30 min. Detection wavelength: 256 nm. Column: Waters C18 3.5 μM, 4.6×100 mm. Injection volume: 20 μL.
HPLC method B: mobile phase A (10 mM NaH2PO4 in water, pH=5.0) and mobile phase B (ACN), flow rate: 1 mL/min, running time: 30 min, the gradient elution method: 30% B from 0 to 6 min, 30% to 50% B from 6 to 8 min, 50% B from 8 to 15 min, 50% to 99% B from 15 to 20 min, 99% B from 20 to 25 min. 99% to 30% B from 25 to 30 min. Detection wavelength 1: 256, detection wavelength 2: 337 nm. Column: Waters C18 3.5 μM, 4.6×100 mm. Injection volume: 20 μL.
General procedures HPLC studies of reaction kinetics. To three 20-ml vials with 9 mL PBS were added a solution of tetrazine prodrug (500 μL, 500 μM). 350 μL, 300 μL and 250 μL DMSO were added to vial respectively, and then 150 μL, 200 μL and 250 μL of the alkyne solution (50 mM in DMSO) were added to the vials to afford final concentrations of alkyne 0.75 mM, 1 mM and 1.25 mM in PBS (10% DMSO, 25 μM prodrug) respectively. The reaction was stirred at r.t or 37° C. respectively. Every 30 min about 500 μL reaction mixtures were taken out and 20 μL of them were injected into the HPLC by the autosampler; the rest of them were poured back to the reaction mixture. (Note: In the cases of prodrugs 1d or 1b reacting with alkyne 2d at 37° C., the final concentrations of 2d in the kinetic studies were 250 μM, 300 μM and 350 μM).
Determination of second-order rate constants. The reaction rate constant, kobs, was calculated for each concentration of the alkyne by fitting the prodrug areas versus time using eq. 1: Y=A exp(−kobst) eq. 1 where Y is the prodrug area, and t is time. The pseudo-first-order rate constant, kobs, was then plotted against the concentration of alkyne to yield the second-order rate constant using eq 2: kobs=k2[Alkyne] eq. 2 where k2 is the second-order rate constant.

[2] = Stability of tetrazine prodrugs in PBS with or without 1 mM cysteine (HPLC); assay type: physicochemical; conditions: 25 μM, n = 4
Protocol: Due to the electron deficient nature of the tetrazine moiety, the stability of the tetrazine-linked prodrugs in the presence of high concentrations of thiol species was studied. In general, a solution of tetrazine prodrug (500 μL, 500 μM) was added to either 9.5 mL of PBS or 1 mM cysteine solution in PBS in a 20-mL vial. The solution was stirred at r.t. or 37° C. for 24 h. The reaction solution was injected into HPLC, and analyzed with Method A (described above) for prodrugs 1b and 1c, and Method B for prodrug 1d.
Prodrug (1d or 1b, 25 μM in PBS alone or in the presence of 1 mM cysteine (Cys) in PBS) was incubated at r.t or 37° C. for 24 h. Then HPLC was used to monitor the concentration of the remaining prodrug (Table 5). No stability problems were observed.

## C#CCOc1ccc(-c2nnc(C(=O)NC3CC(OC4CC(O)(C(=O)CO)Cc5c(O)c6c(c(O)c54)C(=O)c4c(OC)cccc4C6=O)OC(C)C3O)nn2)cc1 (stereo not drawn) [1b]
[1]; 37° C., alkyne 2a 0.75 mM, Expt. 1
  Kobs: 0.418 h⁻¹
[1]; 37° C., alkyne 2a 0.75 mM, Expt. 2
  Kobs: 0.438 h⁻¹
[1]; 37° C., alkyne 2a 0.75 mM, Expt. 3
  Kobs: 0.495 h⁻¹
[1]; 37° C., alkyne 2a 1.00 mM, Expt. 1
  Kobs: 0.546 h⁻¹
[1]; 37° C., alkyne 2a 1.00 mM, Expt. 2
  Kobs: 0.598 h⁻¹
[1]; 37° C., alkyne 2a 1.00 mM, Expt. 3
  Kobs: 0.678 h⁻¹
[1]; 37° C., alkyne 2a 1.25 mM, Expt. 1
  Kobs: 0.673 h⁻¹
[1]; 37° C., alkyne 2a 1.25 mM, Expt. 2
  Kobs: 0.739 h⁻¹
[1]; 37° C., alkyne 2a 1.25 mM, Expt. 3
  Kobs: 0.857 h⁻¹
[1]; 37° C., alkyne 2b 0.75 mM, Expt. 1
  Kobs: 0.486 h⁻¹
[1]; 37° C., alkyne 2b 0.75 mM, Expt. 2
  Kobs: 0.503 h⁻¹
[1]; 37° C., alkyne 2b 0.75 mM, Expt. 3
  Kobs: 0.533 h⁻¹
[1]; 37° C., alkyne 2b 1.00 mM, Expt. 1
  Kobs: 0.635 h⁻¹
[1]; 37° C., alkyne 2b 1.00 mM, Expt. 2
  Kobs: 0.672 h⁻¹
[1]; 37° C., alkyne 2b 1.00 mM, Expt. 3
  Kobs: 0.622 h⁻¹
[1]; 37° C., alkyne 2b 1.25 mM, Expt. 1
  Kobs: 0.783 h⁻¹
[1]; 37° C., alkyne 2b 1.25 mM, Expt. 2
  Kobs: 0.846 h⁻¹
[1]; 37° C., alkyne 2b 1.25 mM, Expt. 3
  Kobs: 0.905 h⁻¹
[1]; 37° C., alkyne 2c 0.75 mM, Expt. 1
  Kobs: 0.0607 h⁻¹
[1]; 37° C., alkyne 2c 0.75 mM, Expt. 2
  Kobs: 0.0671 h⁻¹
[1]; 37° C., alkyne 2c 0.75 mM, Expt. 3
  Kobs: 0.0696 h⁻¹
[1]; 37° C., alkyne 2c 1.00 mM, Expt. 1
  Kobs: 0.0798 h⁻¹
[1]; 37° C., alkyne 2c 1.00 mM, Expt. 2
  Kobs: 0.0895 h⁻¹
[1]; 37° C., alkyne 2c 1.00 mM, Expt. 3
  Kobs: 0.0941 h⁻¹
[1]; 37° C., alkyne 2c 1.25 mM, Expt. 1
  Kobs: 0.0986 h⁻¹
[1]; 37° C., alkyne 2c 1.25 mM, Expt. 2
  Kobs: 0.112 h⁻¹
[1]; 37° C., alkyne 2c 1.25 mM, Expt. 3
  Kobs: 0.119 h⁻¹
[1]; 37° C., alkyne 2d 0.25 mM, Expt. 1
  Kobs: 1.90 h⁻¹
[1]; 37° C., alkyne 2d 0.25 mM, Expt. 2
  Kobs: 1.81 h⁻¹
[1]; 37° C., alkyne 2d 0.25 mM, Expt. 3
  Kobs: 1.97 h⁻¹
[1]; 37° C., alkyne 2d 0.3 mM, Expt. 1
  Kobs: 2.28 h⁻¹
[1]; 37° C., alkyne 2d 0.3 mM, Expt. 2
  Kobs: 2.15 h⁻¹
[1]; 37° C., alkyne 2d 0.3 mM, Expt. 3
  Kobs: 2.38 h⁻¹
[1]; 37° C., alkyne 2d 0.35 mM, Expt. 1
  Kobs: 2.65 h⁻¹
[1]; 37° C., alkyne 2d 0.35 mM, Expt. 2
  Kobs: 2.48 h⁻¹
[1]; 37° C., alkyne 2d 0.35 mM, Expt. 3
  Kobs: 2.78 h⁻¹
[1]; alkyne 2a, 37° C.
  k2 at 37° C. (second order rate constant): 0.17 M⁻¹ s⁻¹
[1]; alkyne 2a, 37° C., listed as lb
  k2 at 37° C. (second order rate constant): 0.17 ± 0.05 M⁻¹ s⁻¹
[1]; alkyne 2a, r.t
  k2 at r.t (second order rate constant): 0.061 ± 0.013 M⁻¹ s⁻¹
[1]; alkyne 2b, 37° C.
  k2 at 37° C. (second order rate constant): 0.19 M⁻¹ s⁻¹
[1]; alkyne 2b, 37° C., listed as lb
  k2 at 37° C. (second order rate constant): 0.19 ± 0.04 M⁻¹ s⁻¹
[1]; alkyne 2b, r.t
  k2 at r.t (second order rate constant): 0.065 ± 0.013 M⁻¹ s⁻¹
[1]; alkyne 2c, 37° C.
  k2 at 37° C. (second order rate constant): 0.025 ± 0.006 M⁻¹ s⁻¹
[1]; alkyne 2c, r.t
  k2 at r.t (second order rate constant): 0.0078 ± 0.0009 M⁻¹ s⁻¹
[1]; alkyne 2d, 37° C.
  k2 at 37° C. (second order rate constant): 2.1 M⁻¹ s⁻¹
[1]; alkyne 2d, 37° C., listed as lb
  k2 at 37° C. (second order rate constant): 2.1 ± 0.4 M⁻¹ s⁻¹
[1]; alkyne 2d, r.t
  k2 at r.t (second order rate constant): 0.36 ± 0.07 M⁻¹ s⁻¹
[1]; r.t, alkyne 2a 0.75 mM, Expt. 1
  Kobs: 0.183 h⁻¹
[1]; r.t, alkyne 2a 0.75 mM, Expt. 2
  Kobs: 0.191 h⁻¹
[1]; r.t, alkyne 2a 0.75 mM, Expt. 3
  Kobs: 0.185 h⁻¹
[1]; r.t, alkyne 2a 1.00 mM, Expt. 1
  Kobs: 0.235 h⁻¹
[1]; r.t, alkyne 2a 1.00 mM, Expt. 2
  Kobs: 0.246 h⁻¹
[1]; r.t, alkyne 2a 1.00 mM, Expt. 3
  Kobs: 0.247 h⁻¹
[1]; r.t, alkyne 2a 1.25 mM, Expt. 1
  Kobs: 0.289 h⁻¹
[1]; r.t, alkyne 2a 1.25 mM, Expt. 2
  Kobs: 0.295 h⁻¹
[1]; r.t, alkyne 2a 1.25 mM, Expt. 3
  Kobs: 0.307 h⁻¹
[1]; r.t, alkyne 2b 0.75 mM, Expt. 1
  Kobs: 0.201 h⁻¹
[1]; r.t, alkyne 2b 0.75 mM, Expt. 2
  Kobs: 0.195 h⁻¹
[1]; r.t, alkyne 2b 0.75 mM, Expt. 3
  Kobs: 0.197 h⁻¹
[1]; r.t, alkyne 2b 1.00 mM, Expt. 1
  Kobs: 0.261 h⁻¹
[1]; r.t, alkyne 2b 1.00 mM, Expt. 2
  Kobs: 0.257 h⁻¹
[1]; r.t, alkyne 2b 1.00 mM, Expt. 3
  Kobs: 0.261 h⁻¹
[1]; r.t, alkyne 2b 1.25 mM, Expt. 1
  Kobs: 0.309 h⁻¹
[1]; r.t, alkyne 2b 1.25 mM, Expt. 2
  Kobs: 0.318 h⁻¹
[1]; r.t, alkyne 2b 1.25 mM, Expt. 3
  Kobs: 0.326 h⁻¹
[1]; r.t, alkyne 2c 0.75 mM, Expt. 1
  Kobs: 0.0202 h⁻¹
[1]; r.t, alkyne 2c 0.75 mM, Expt. 2
  Kobs: 0.0209 h⁻¹
[1]; r.t, alkyne 2c 0.75 mM, Expt. 3
  Kobs: 0.0207 h⁻¹
[1]; r.t, alkyne 2c 1.00 mM, Expt. 1
  Kobs: 0.0282 h⁻¹
[1]; r.t, alkyne 2c 1.00 mM, Expt. 2
  Kobs: 0.0262 h⁻¹
[1]; r.t, alkyne 2c 1.00 mM, Expt. 3
  Kobs: 0.0278 h⁻¹
[1]; r.t, alkyne 2c 1.25 mM, Expt. 1
  Kobs: 0.0353 h⁻¹
[1]; r.t, alkyne 2c 1.25 mM, Expt. 2
  Kobs: 0.0341 h⁻¹
[1]; r.t, alkyne 2c 1.25 mM, Expt. 3
  Kobs: 0.0344 h⁻¹
[1]; r.t, alkyne 2d 0.75 mM, Expt. 1
  Kobs: 0.894 h⁻¹
[1]; r.t, alkyne 2d 0.75 mM, Expt. 2
  Kobs: 0.976 h⁻¹
[1]; r.t, alkyne 2d 0.75 mM, Expt. 3
  Kobs: 0.993 h⁻¹
[1]; r.t, alkyne 2d 1.00 mM, Expt. 1
  Kobs: 1.18 h⁻¹
[1]; r.t, alkyne 2d 1.00 mM, Expt. 2
  Kobs: 1.30 h⁻¹
[1]; r.t, alkyne 2d 1.00 mM, Expt. 3
  Kobs: 1.34 h⁻¹
[1]; r.t, alkyne 2d 1.25 mM, Expt. 1
  Kobs: 1.47 h⁻¹
[1]; r.t, alkyne 2d 1.25 mM, Expt. 2
  Kobs: 1.62 h⁻¹
[1]; r.t, alkyne 2d 1.25 mM, Expt. 3
  Kobs: 1.69 h⁻¹
[2]; PBS (5% DMSO) with 1 mM Cys, 37° C.
  Prodrugs remaining, 24 h in PBS with 1 mM Cys at 37° C.: 76 ± 5%
[2]; PBS (5% DMSO) with 1 mM Cys, r.t
  Prodrugs remaining, 24 h in PBS with 1 mM Cys at r.t: 80 ± 5%
[2]; PBS (5% DMSO), 37° C.
  Prodrugs remaining, 24 h in PBS at 37° C.: 78 ± 5%
[2]; PBS (5% DMSO), r.t
  Prodrugs remaining, 24 h in PBS at r.t: 85 ± 5%

— US11607458B2 (Georgia State University Research Foundation, Inc, priority 2017, dated 2023)
